Data taken from patent US9586968B2, “Bicycloamine-substituted-N-benzenesulfonamide compounds with selective activity in voltage-gated sodium channels” (Merck Sharp & Dohme Corp., priority 2013, dated 2017).

Legend:
human Nav1.7 = target: T1, human Nav1.7 (Homo sapiens, UniProt Q15858); experiment: PatchXpress automated patch-clamp, inactivated state block of Nav1.7; type: cell-based; conditions: channels stably expressed in HEK 293 cells, 22° C., read-out: potency for the Nav 1.7 sodium ion channel (as measured by PatchXpress)
T1 construct: expressed in transfected cells
Description: (§1) Compounds were tested on human Nav1.7 and Nav1.5 channels stably expressed in HEK 293 cells. Activity toward Nav 1.7 and Nav 1.5 channels was assessed using the following assay methodology.
(§2) Sodium Current Measurements on the PatchXpress 7000®:
(§3) To measure inactivated state block of sodium channels, test compounds were characterized in an automated PatchXpress® assay (Molecular Devices) using a double-pulse protocol on human Nav1.7 and Nav1.5 channels stably expressed in HEK 293 cells. Cells were held at a potential 20 mV negative to V0.5 inact. An 8000 ms pre-pulse 7 mV positive to V0.5 inact was given followed by a hyperpolarizing 2 ms pulse to −120 mV and a 20 ms test pulse to −20 mV. Protocol was applied to cells in the absence, presence of compound and after washout. The temperature of PatchXpress instruments was maintained at 22° C. The following recording solutions were used. Internal solution (mM): 30 CsCl, 5 HEPES, 10 EGTA, 120 CsF, 5 NaF, 2 MgCl2. External solution (mM): 120 NMDG, 40 NaCl, 1 KCl, 0.5 MgCl2, 5 HEPES, 2.7 CaCl2.
(§4) For all electrophysiology experiments, offline analysis was used to correct for current rundown and to determine percent inhibition as a function of drug concentration. IC50 values were determined by fitting to the Hill equation.

human Nav1.5 = target: T2, human Nav1.5 (Homo sapiens, UniProt Q14524); experiment: PatchXpress automated patch-clamp, inactivated state block of Nav1.5 (selectivity); type: cell-based; conditions: determined by PatchXpress measurement, HEK 293 cells
T2 construct: expressed in transfected cells
Description: as §1, §2, §3, §4

T2 sequence (Q14524 whole entry): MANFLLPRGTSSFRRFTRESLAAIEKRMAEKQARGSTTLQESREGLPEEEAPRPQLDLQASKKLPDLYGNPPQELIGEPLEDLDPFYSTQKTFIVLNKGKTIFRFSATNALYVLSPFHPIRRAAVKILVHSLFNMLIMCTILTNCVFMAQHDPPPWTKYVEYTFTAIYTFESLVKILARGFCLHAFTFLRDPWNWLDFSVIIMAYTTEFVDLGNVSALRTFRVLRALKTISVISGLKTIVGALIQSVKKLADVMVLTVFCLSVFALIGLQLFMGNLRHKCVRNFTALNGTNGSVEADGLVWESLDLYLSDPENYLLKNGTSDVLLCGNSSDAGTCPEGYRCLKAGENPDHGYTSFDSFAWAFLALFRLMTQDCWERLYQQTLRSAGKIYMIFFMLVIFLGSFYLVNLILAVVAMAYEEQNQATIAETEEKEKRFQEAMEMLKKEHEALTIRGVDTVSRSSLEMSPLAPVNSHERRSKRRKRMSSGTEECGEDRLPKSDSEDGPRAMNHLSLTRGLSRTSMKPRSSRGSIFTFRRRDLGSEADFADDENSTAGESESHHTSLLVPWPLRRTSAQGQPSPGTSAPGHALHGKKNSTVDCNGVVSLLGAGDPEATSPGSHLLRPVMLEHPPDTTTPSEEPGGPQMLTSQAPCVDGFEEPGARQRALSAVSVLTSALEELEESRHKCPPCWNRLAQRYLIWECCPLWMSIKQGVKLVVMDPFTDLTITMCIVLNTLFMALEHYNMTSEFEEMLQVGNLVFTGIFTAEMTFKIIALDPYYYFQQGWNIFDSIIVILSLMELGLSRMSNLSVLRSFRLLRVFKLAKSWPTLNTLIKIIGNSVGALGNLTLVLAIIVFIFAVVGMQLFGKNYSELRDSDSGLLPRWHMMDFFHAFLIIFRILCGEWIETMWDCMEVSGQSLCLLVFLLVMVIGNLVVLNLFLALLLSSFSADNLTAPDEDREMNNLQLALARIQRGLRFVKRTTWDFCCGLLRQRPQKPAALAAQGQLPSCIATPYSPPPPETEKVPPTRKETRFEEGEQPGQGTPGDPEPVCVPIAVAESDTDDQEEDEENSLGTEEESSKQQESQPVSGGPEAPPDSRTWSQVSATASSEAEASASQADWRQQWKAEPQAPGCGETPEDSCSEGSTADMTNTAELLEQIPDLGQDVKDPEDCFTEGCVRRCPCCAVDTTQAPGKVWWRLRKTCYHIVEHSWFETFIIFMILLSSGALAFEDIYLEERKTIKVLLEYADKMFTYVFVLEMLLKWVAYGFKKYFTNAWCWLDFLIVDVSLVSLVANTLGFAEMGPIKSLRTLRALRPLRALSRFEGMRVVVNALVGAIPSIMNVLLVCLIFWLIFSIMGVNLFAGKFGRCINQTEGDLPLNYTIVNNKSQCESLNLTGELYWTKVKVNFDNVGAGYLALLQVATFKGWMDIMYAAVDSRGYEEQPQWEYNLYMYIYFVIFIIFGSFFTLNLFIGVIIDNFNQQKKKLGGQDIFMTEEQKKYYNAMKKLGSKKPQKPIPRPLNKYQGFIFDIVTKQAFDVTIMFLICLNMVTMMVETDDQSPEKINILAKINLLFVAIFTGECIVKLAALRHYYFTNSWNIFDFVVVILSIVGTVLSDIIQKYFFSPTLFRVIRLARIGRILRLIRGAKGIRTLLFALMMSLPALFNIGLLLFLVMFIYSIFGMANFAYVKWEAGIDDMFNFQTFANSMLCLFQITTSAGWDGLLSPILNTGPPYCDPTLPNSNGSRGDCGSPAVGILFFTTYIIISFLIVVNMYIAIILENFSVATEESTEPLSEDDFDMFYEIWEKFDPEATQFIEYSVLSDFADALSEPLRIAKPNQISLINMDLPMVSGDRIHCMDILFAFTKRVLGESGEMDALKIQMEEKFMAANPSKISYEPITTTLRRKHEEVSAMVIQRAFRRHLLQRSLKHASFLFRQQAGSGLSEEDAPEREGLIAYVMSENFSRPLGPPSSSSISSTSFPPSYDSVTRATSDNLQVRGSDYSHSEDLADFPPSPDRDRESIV
T1 sequence (Q15858 whole entry): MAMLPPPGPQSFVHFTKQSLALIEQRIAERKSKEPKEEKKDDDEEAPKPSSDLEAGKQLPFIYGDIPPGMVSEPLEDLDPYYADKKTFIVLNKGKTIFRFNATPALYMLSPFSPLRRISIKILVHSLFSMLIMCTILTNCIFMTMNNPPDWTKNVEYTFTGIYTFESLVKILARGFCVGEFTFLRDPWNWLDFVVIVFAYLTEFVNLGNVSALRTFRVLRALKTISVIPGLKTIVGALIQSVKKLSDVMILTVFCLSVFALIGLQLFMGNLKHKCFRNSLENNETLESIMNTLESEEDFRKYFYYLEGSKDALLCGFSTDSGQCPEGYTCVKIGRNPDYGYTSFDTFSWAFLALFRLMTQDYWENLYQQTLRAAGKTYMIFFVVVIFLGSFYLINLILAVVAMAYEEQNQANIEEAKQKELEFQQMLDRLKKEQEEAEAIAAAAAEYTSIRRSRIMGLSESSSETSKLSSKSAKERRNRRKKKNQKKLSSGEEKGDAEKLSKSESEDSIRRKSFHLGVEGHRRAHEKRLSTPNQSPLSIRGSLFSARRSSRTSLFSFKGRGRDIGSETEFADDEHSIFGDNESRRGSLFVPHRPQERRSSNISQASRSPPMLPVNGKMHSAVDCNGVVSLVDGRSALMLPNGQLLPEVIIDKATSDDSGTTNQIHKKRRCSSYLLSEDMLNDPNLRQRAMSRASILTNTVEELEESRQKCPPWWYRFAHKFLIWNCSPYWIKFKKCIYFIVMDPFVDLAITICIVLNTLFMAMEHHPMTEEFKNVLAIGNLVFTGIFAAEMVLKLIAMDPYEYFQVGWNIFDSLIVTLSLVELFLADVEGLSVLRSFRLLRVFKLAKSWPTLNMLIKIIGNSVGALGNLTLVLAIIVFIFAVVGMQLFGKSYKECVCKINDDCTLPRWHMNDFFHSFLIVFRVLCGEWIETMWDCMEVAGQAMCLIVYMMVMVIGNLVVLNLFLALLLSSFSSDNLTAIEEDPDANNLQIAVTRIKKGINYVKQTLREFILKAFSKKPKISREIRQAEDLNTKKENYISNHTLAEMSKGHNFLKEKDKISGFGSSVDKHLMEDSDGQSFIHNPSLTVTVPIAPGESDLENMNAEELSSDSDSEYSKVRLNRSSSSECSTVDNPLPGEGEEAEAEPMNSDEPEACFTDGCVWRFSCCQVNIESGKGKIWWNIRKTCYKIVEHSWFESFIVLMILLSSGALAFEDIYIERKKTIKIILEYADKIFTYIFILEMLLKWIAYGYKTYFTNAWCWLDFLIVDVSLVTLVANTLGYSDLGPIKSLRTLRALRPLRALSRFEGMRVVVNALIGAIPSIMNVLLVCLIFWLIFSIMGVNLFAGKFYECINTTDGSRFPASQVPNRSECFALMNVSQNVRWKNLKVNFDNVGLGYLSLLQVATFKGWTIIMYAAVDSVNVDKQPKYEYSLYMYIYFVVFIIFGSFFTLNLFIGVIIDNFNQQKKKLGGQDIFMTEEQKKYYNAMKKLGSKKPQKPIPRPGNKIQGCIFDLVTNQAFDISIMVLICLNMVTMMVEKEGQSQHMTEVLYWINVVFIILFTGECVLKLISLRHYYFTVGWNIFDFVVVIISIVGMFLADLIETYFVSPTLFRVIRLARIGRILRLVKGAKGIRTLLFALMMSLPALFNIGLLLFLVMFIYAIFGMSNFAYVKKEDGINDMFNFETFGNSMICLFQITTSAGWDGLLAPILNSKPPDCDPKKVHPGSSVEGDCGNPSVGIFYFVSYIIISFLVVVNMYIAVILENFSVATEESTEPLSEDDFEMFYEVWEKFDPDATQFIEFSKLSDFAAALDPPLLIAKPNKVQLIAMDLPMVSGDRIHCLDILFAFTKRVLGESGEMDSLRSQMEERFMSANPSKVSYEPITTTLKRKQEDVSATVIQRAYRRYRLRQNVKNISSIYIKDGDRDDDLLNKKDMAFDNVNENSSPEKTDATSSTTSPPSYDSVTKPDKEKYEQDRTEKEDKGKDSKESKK

Compound: CC1CN2CCCC2(CNc2ccc(S(=O)(=O)Nc3nccs3)cc2C#N)C1 (racemic) [Ex4-8, 3-cyano-4-{[((2S,7aR and 2R,7aS)-2-methyltetrahydro-1H-pyrrolizin-7a(5H)-yl)methyl]amino}-N-(1,3-thiazol-2-yl)benzenesulfonamide]
- IC50 (human Nav1.7): 27 nM
- ratio of Nav1.7 potency:Nav 1.5 potency (human Nav1.5): 1109

Compound: N#Cc1cc(S(=O)(=O)Nc2nccs2)ccc1NCC12CCCN1CC(F)(F)C2 (racemic) [Ex6-6, (R and S)-3-cyano-4-{[(2,2-difluorotetrahydro-1H-pyrrolizin-7a(5H)-yl)methyl]amino}-N-(1,3-thiazol-2-yl)benzenesulfonamide]
- IC50 (human Nav1.7): 472 nM
- ratio of Nav1.7 potency:Nav 1.5 potency (human Nav1.5): 64

Compound: O=S(=O)(Nc1ncc(Cl)s1)c1cc(Cl)c(NCC23CCCN2CC(F)(F)C3)cc1F (racemic) [Ex6-8, (R and S)-5-chloro-N-(5-chloro-1,3-thiazol-2-yl)-4-{[(2,2-difluorotetrahydro-1H-pyrrolizin-7a(5H)-yl)methyl]amino}-2-fluorobenzenesulfonamide]
- IC50 (human Nav1.7): 1300 nM
- ratio of Nav1.7 potency:Nav 1.5 potency (human Nav1.5): 19

Compound: Cc1csc(NS(=O)(=O)c2cc(Cl)c(NCC34CCCN3CC(C)(C)C4)cc2F)n1 (racemic) [Ex8-25, (R and S)-5-chloro-4-(((2,2-dimethylhexahydro-1H-pyrrolizin-7a-yl)methyl)amino)-2-fluoro-N-(4-methylthiazol-2-yl)benzenesulfonamide]
- IC50 (human Nav1.7): 32 nM
- ratio of Nav1.7 potency:Nav 1.5 potency (human Nav1.5): 947

Compound: O=S(=O)(Nc1nccs1)c1cc(Cl)c(NCC23CCCN2C(CF)CC3)cc1F (racemic) [Ex14-10, 5-chloro-2-fluoro-4-((((3S,7aS and 3R,7aR)-3-(fluoromethyl)hexahydro-1H-pyrrolizin-7a-yl)methyl)amino)-N-(thiazol-2-yl)benzenesulfonamide]
- IC50 (human Nav1.7): 59 nM
- ratio of Nav1.7 potency:Nav 1.5 potency (human Nav1.5): 509

Compound: CC(Nc1cc(F)c(S(=O)(=O)Nc2nccs2)cc1Cl)C12CCCN1CCC2 (single isomer, unassigned) [Ex5-8, 5-chloro-2-fluoro-4-{[(R or S)1-(tetrahydro-1H-pyrrolizin-7a(5H)-yl)ethyl]amino}-N-(1,3-thiazol-2-yl)benzenesulfonamide]
- IC50 (human Nav1.7): 52 nM
- ratio of Nav1.7 potency:Nav 1.5 potency (human Nav1.5): 407

Compound: CC(Nc1cc(F)c(S(=O)(=O)Nc2nccs2)cc1Cl)C12CCCN1CCC2 (single isomer, unassigned) [Ex5-9, 5-chloro-2-fluoro-4-{[(1S or R)-1-(tetrahydro-1H-pyrrolizin-7a(5H)-yl)ethyl]amino}-N-(1,3-thiazol-2-yl)benzenesulfonamide]
- IC50 (human Nav1.7): 1090 nM
- ratio of Nav1.7 potency:Nav 1.5 potency (human Nav1.5): 26

Compound: CC1(C)CN2CCCC2(CNc2cc(F)c(S(=O)(=O)Nc3ncc(Cl)s3)cc2Cl)C1 (single isomer, unassigned) [Ex8-19-A, (R or S) 5-chloro-N-(5-chlorothiazol-2-yl)-4-(((2,2-dimethylhexahydro-1H-pyrrolizin-7a-yl)methyl)amino)-2-fluorobenzenesulfonamide]
- IC50 (human Nav1.7): 14 nM
- ratio of Nav1.7 potency:Nav 1.5 potency (human Nav1.5): 812

Compound: CC1(C)CN2CCCC2(CNc2cc(F)c(S(=O)(=O)Nc3ncc(Cl)s3)cc2Cl)C1 (single isomer, unassigned) [Ex8-19-B, (S or R) 5-chloro-N-(5-chlorothiazol-2-yl)-4-(((2,2-dimethylhexahydro-1H-pyrrolizin-7a-yl)methyl)amino)-2-fluorobenzenesulfonamide]
- IC50 (human Nav1.7): 135 nM
- ratio of Nav1.7 potency:Nav 1.5 potency (human Nav1.5): 265

Compound: CC1(C)CN2CCCC2(CNc2cc(F)c(S(=O)(=O)Nc3ncc(F)s3)cc2Cl)C1 (single isomer, unassigned) [Ex8-21-A, (R or S) 5-chloro-4-(((2,2-dimethylhexahydro-1H-pyrrolizin-7a-yl)methyl)amino)-2-fluoro-N-(5-fluorothiazol-2-yl)benzenesulfonamide]
- IC50 (human Nav1.7): 35 nM
- ratio of Nav1.7 potency:Nav 1.5 potency (human Nav1.5): 851

Compound: CC1(C)CN2CCCC2(CNc2cc(F)c(S(=O)(=O)Nc3ncc(F)s3)cc2Cl)C1 (single isomer, unassigned) [Ex8-21-B, (S or R) 5-chloro-4-(((2,2-dimethylhexahydro-1H-pyrrolizin-7a-yl)methyl)-amino)-2-fluoro-N-(5-fluorothiazol-2-yl)-benzenesulfonamide]
- IC50 (human Nav1.7): 23 nM
- ratio of Nav1.7 potency:Nav 1.5 potency (human Nav1.5): 1290

Compound: CC1(C)CN2CCCC2(CNc2ccc(S(=O)(=O)Nc3nccs3)cc2C(F)(F)F)C1 (single isomer, unassigned) [Ex8-23-A, (R or S) 4-(((2,2-dimethylhexahydro-1H-pyrrolizin-7a-yl)methyl)-amino)-N-(thiazol-2-yl)-3-(trifluoromethyl)benzene-sulfonamide]
- IC50 (human Nav1.7): 172 nM
- ratio of Nav1.7 potency:Nav 1.5 potency (human Nav1.5): 175

Compound: CC1(C)CN2CCCC2(CNc2ccc(S(=O)(=O)Nc3nccs3)cc2C(F)(F)F)C1 (single isomer, unassigned) [Ex8-23-B, (S or R) 4-(((2,2-dimethylhexahydro-1H-pyrrolizin-7a-yl)methyl)amino)-N-(thiazol-2-yl)-3-(trifluoromethyl)-benzenesulfonamide]
- IC50 (human Nav1.7): 31 nM
- ratio of Nav1.7 potency:Nav 1.5 potency (human Nav1.5): 981

Compound: O=S(=O)(Nc1ncc(F)s1)c1cc(Cl)c(NCC23CCCN2CC(F)C3)cc1F (single isomer, unassigned) [Ex9-10-A, 5-chloro-2-fluoro-4-((((2R,7aS or 2S,7aR)-2-fluoro-hexahydro-1H-pyrrolizin-7a-yl)-methyl)amino)-N-(5-fluorothiazol-2-yl)-benzenesulfonamide]
- IC50 (human Nav1.7): 148 nM
- ratio of Nav1.7 potency:Nav 1.5 potency (human Nav1.5): 137

Compound: O=S(=O)(Nc1ncc(F)s1)c1cc(Cl)c(NCC23CCCN2CC(F)C3)cc1F (single isomer, unassigned) [Ex9-10-B, 5-chloro-2-fluoro-4-((((2S,7aR or 2R,7aS)-2-fluoro-hexahydro-1H-pyrrolizin-7a-yl)-methyl)amino)-N-(5-fluorothiazol-2-yl)-benzenesulfonamide]
- IC50 (human Nav1.7): 58 nM
- ratio of Nav1.7 potency:Nav 1.5 potency (human Nav1.5): 122

Compound: O=S(=O)(Nc1ncc(F)s1)c1ccc(NCC23CCCN2CC(F)C3)c(C(F)(F)F)c1 (single isomer, unassigned) [Ex9-12-A, 4-((((2R,7aS or 2S,7aR)-2-fluoro-hexahydro-1H-pyrrolizin-7a-yl)-methyl)amino)-N-(5-fluorothiazol-2-yl)-3-(trifluoromethyl)-benzenesulfonamide]
- IC50 (human Nav1.7): 89 nM
- ratio of Nav1.7 potency:Nav 1.5 potency (human Nav1.5): 338

Compound: O=S(=O)(Nc1ncc(F)s1)c1ccc(NCC23CCCN2CC(F)C3)c(C(F)(F)F)c1 (single isomer, unassigned) [Ex9-12-B, 4-((((2S,7aR or 2R,7aS)-2-fluoro-hexahydro-1H-pyrrolizin-7a-yl)methyl)amino)-N-(5-fluorothiazol-2-yl)-3-(trifluoromethyl)-benzenesulfonamide]
- IC50 (human Nav1.7): 80 nM
- ratio of Nav1.7 potency:Nav 1.5 potency (human Nav1.5): 300

Compound: O=S(=O)(Nc1ncc(F)s1)c1ccc(NCC23CCCN2CC(F)C3)c(Cl)c1 (single isomer, unassigned) [Ex9-14-A, 3-chloro-4-((((2R,7aS or 2S,7aR)-2-fluoro-hexahydro-1H-pyrrolizin-7a-yl)-methyl)amino)-N-(5-fluorothiazol-2-yl)-benzenesulfonamide]
- IC50 (human Nav1.7): 144 nM
- ratio of Nav1.7 potency:Nav 1.5 potency (human Nav1.5): 208

Compound: O=S(=O)(Nc1ncc(F)s1)c1ccc(NCC23CCCN2CC(F)C3)c(Cl)c1 (single isomer, unassigned) [Ex9-14-B, 3-chloro-4-((((2S,7aR or 2R,7aS)-2-fluoro-hexahydro-1H-pyrrolizin-7a-yl)methyl)amino)-N-(5-fluorothiazol-2-yl)-benzenesulfonamide]
- IC50 (human Nav1.7): 176 nM
- ratio of Nav1.7 potency:Nav 1.5 potency (human Nav1.5): 171

Compound: O=S(=O)(Nc1nccs1)c1cc(Cl)c(NC[C@]23CCCN2CC2(C3)OCCO2)cc1F (single isomer, unassigned) [Ex10-7-A]
- IC50 (human Nav1.7): 10 nM
- ratio of Nav1.7 potency:Nav 1.5 potency (human Nav1.5): 3074

Compound: O=S(=O)(Nc1nccs1)c1cc(Cl)c(NC[C@@]23CCCN2CC2(C3)OCCO2)cc1F (single isomer, unassigned) [Ex10-7-B]
- IC50 (human Nav1.7): 32 nM
- ratio of Nav1.7 potency:Nav 1.5 potency (human Nav1.5): 935

Compound: O=S(=O)(Nc1ncc(Cl)s1)c1cc(Cl)c(NCC23CCCN2CC2(C3)OCCO2)cc1F (single isomer, unassigned) [Ex10-9-A, (S or R)-5-chloro-N-(5-chlorothiazol-2-yl)-2-fluoro-4-(((hexahydro-spiro[[1,3]dioxolane-2,2′-pyrrolizin]-7a′-yl)-methyl)amino)-benzenesulfonamide]
- IC50 (human Nav1.7): 25 nM
- ratio of Nav1.7 potency:Nav 1.5 potency (human Nav1.5): 1210

Compound: O=S(=O)(Nc1ncc(Cl)s1)c1cc(Cl)c(NCC23CCCN2CC2(C3)OCCO2)cc1F (single isomer, unassigned) [Ex10-9-B, (R or S)-5-chloro-N-(5-chloro-thiazol-2-yl)-2-fluoro-4-(((hexahydrospiro[[1,3]-dioxolane-2,2′-pyrrolizin]-7a′-yl)-methyl)amino)-benzenesulfonamide]
- IC50 (human Nav1.7): 108 nM
- ratio of Nav1.7 potency:Nav 1.5 potency (human Nav1.5): 277

Compound: CC1CN2CCCC2(CNc2cc(F)c(S(=O)(=O)Nc3nccs3)cc2Cl)C1 [Ex4-9, 5-chloro-2-fluoro-4-{[((2S,7aR and 2R,7aS)-2-methyl-tetrahydro-1H-pyrrolizin-7a(5H)-yl)methyl]amino}-N-(1,3-thiazol-2-yl)-benzenesulfonamide]
- IC50 (human Nav1.7): 9 nM
